What was measured:
[1] = human, hek293, 0.1 µM
[2] = Unbound fraction in HEK293 cell homogenate at 0.01 uM by equilibrium dialysis based UPLC-MS/MS analysis; type: ADME; conditions: human, hek293, 0.01 µM

| SMILES | Fu [1] | Fu [2] |
| --- | --- | --- |
| CCCc1nc2c(C)cc(-c3nc4ccccc4n3C)cc2n1Cc1ccc(-c2ccccc2C(=O)O)cc1 | 0.42 |  |
| CC(C)(C)NC(=O)[C@@H]1C[C@@H]2CCCC[C@@H]2CN1C[C@@H](O)[C@H](Cc1ccccc1)NC(=O)[C@H](CC(N)=O)NC(=O)c1ccc2ccccc2n1 | 0.17 |  |
| CC(C)CN(C[C@@H](O)[C@H](Cc1ccccc1)NC(=O)O[C@H]1CCOC1)S(=O)(=O)c1ccc(N)cc1 | 0.92 |  |
| Cc1c(O)cccc1C(=O)N[C@@H](CSc1ccccc1)[C@H](O)CN1C[C@H]2CCCC[C@H]2C[C@H]1C(=O)NC(C)(C)C |  | 0.024 |
| C=CCc1ccccc1OCC(O)CNC(C)C (stereo unspecified) [ALPRENOLOL] | 0.9 |  |
| CCCCN1CCCCC1C(=O)Nc1c(C)cccc1C (stereo unspecified) [BUPIVACAINE] | 0.89 |  |
| NC(=O)N1c2ccccc2C=Cc2ccccc21 [CARBAMAZEPINE] | 0.97 |  |
| COCc1c(C(C)C)nc(C(C)C)c(/C=C/[C@@H](O)C[C@@H](O)CC(=O)O)c1-c1ccc(F)cc1 [CERIVASTATIN] | 0.55 |  |
| CCCNC(=O)NS(=O)(=O)c1ccc(Cl)cc1 [CHLORPROPAMIDE] | 1 |  |
| CN/C(=N/CCSCc1nc[nH]c1C)NC#N [CIMETIDINE] | 1 |  |
| CN(C)CCCC1(c2ccc(F)cc2)OCc2cc(C#N)ccc21 (stereo unspecified) [CITALOPRAM] | 0.81 |  |
| CN(C)CCCN1c2ccccc2CCc2ccc(Cl)cc21 [CLOMIPRAMINE] | 0.19 |  |
| COc1ccc2c(c1)[C@]13CCCC[C@@H]1[C@H](C2)N(C)CC3 [DEXTROMETHORPHAN] | 0.82 |  |
| O=C(O)Cc1ccccc1Nc1c(Cl)cccc1Cl [DICLOFENAC] | 0.78 |  |
| O=C(CCCN1CCC(O)(c2ccc(Cl)cc2)CC1)c1ccc(F)cc1 [HALOPERIDOL] | 0.52 |  |
| COc1ccc2c(c1)c(CC(=O)O)c(C)n2C(=O)c1ccc(Cl)cc1 [INDOMETHACIN] | 0.79 |  |
| CC(=O)N1CCN(c2ccc(OCC3COC(Cn4ccnc4)(c4ccc(Cl)cc4Cl)O3)cc2)CC1 (stereo unspecified) [KETOCONAZOLE] | 0.39 |  |
| CN(C)C(=O)C(CCN1CCC(O)(c2ccc(Cl)cc2)CC1)(c1ccccc1)c1ccccc1 [LOPERAMIDE] | 0.35 |  |

| SMILES | Fu [1] | Fu [2] |
| --- | --- | --- |
| CC[C@H](C)C(=O)O[C@H]1C[C@@H](C)C=C2C=C[C@H](C)[C@H](CC[C@@H]3C[C@@H](O)CC(=O)O3)[C@H]21 [LOVASTATIN] | 0.22 |  |
| CCN(CC)CCNC(=O)c1cc(Cl)c(N)cc1OC [METOCLOPRAMIDE] | 0.95 |  |
| COCCc1ccc(OCC(O)CNC(C)C)cc1 (stereo unspecified) [METOPROLOL] | 1 |  |
| Cc1ncc2n1-c1ccc(Cl)cc1C(c1ccccc1F)=NC2 [MIDAZOLAM] | 0.66 |  |
| O=C1c2c(O)ccc(O)c2C(=O)c2c(NCCNCCO)ccc(NCCNCCO)c21 [MITOXANTRONE] | 0.13 |  |
| COC(=O)C1=C(C)NC(C)=C(C(=O)OCCN(C)Cc2ccccc2)C1c1cccc([N+](=O)[O-])c1 (stereo unspecified) [NICARDIPINE] | 0.095 |  |
| Cc1nccn1CC1CCc2c(c3ccccc3n2C)C1=O (stereo unspecified) [ONDANSETRON] | 0.94 |  |
| Fc1ccc([C@@H]2CCNC[C@H]2COc2ccc3c(c2)OCO3)cc1 [PAROXETINE] | 0.25 |  |
| CC(=O)[C@H]1CC[C@H]2[C@@H]3CCC4=CC(=O)CC[C@]4(C)[C@H]3CC[C@]12C [PROGESTERONE] | 0.67 |  |
| CC(C)NCC(O)COc1cccc2ccccc12 (stereo unspecified) [PROPRANOLOL] | 0.7 |  |
| CNC(=C[N+](=O)[O-])NCCSCc1ccc(CN(C)C)o1 [RANITIDINE] | 1 |  |
| CO[C@H]1/C=C/O[C@@]2(C)Oc3c(C)c(O)c4c(O)c(c(/C=N/N5CCN(C)CC5)c(O)c4c3C2=O)NC(=O)/C(C)=C\C=C\[C@H](C)[C@H](O)[C@@H](C)[C@@H](O)[C@@H](C)[C@H](OC(C)=O)[C@@H]1C [RIFAMPIN] | 0.62 |  |
| C[C@@H]1CN(c2c(F)c(N)c3c(=O)c(C(=O)O)cn(C4CC4)c3c2F)C[C@H](C)N1 [SPARFLOXACIN] | 0.88 |  |
| O=C(CCCN1CCC2(CC1)C(=O)NCN2c1ccccc1)c1ccc(F)cc1 [SPIPERONE] | 0.66 |  |
| O=C(O)c1cc(/N=N/c2ccc(S(=O)(=O)Nc3ccccn3)cc2)ccc1O [SULFASALAZINE] | 0.72 |  |
| CC(C)(C)NCC(O)COc1ccc(NC(=O)NC2CCCCC2)cc1 (stereo unspecified) [TALINOLOL] | 0.85 |  |
| CSc1ccc2c(c1)N(CCC1CCCCN1C)c1ccccc1S2 (stereo unspecified) [THIORIDAZINE] | 0.049 |  |
| CC(CN(C)C)CN1c2ccccc2CCc2ccccc21 (stereo unspecified) [TRIMIPRAMINE] | 0.4 |  |
